PubChem BioAssay (NCI)
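The compound was tested at five concentrations on cells cultured in 96-well plates, with a 48-hour exposure period. TGI: concentration producing complete growth inhibition.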

The compounds below were run on SK-MEL-2 melanoma (assay: NCI tumour cell line growth inhibition, 48 h).

Point of comparison: `Cc1nnc2n1N=C(c1ccccc1)/C(=C/c1ccc(-c3ccc(Cl)cc3)o1)S2`, TGI 27.5 µM. Against it:
- Cn1c(=O)c2c3ccccc3n(C)c2n(C)c1=O — higher, > 100 µM
- CN(C)CCNc1ccc([N+](=O)[O-])c2sc3ccccc3c(=O)c12 — within 1.5-fold, 27.9 µM
- COc1cc(NC(C)c2ccc3c(c2)OCCO3)cc(OC)c1OC (stereo not drawn) — 2.9-fold higher, 79.8 µM
- CN1Cc2ccccc2S(=O)(=O)n2cccc2C1=O — higher, > 100 µM
- Cc1cccc2oc3c(CC(=O)O)cccc3c(=O)c12 — 1.6-fold lower, 17.4 µM
- S=c1nc2sc3c(c2c(Nc2ccc(Cl)cc2)[nH]1)CCCC3 — higher, > 100 µM
- CCCCS(=O)(=O)CCC(N)P(=O)(O)O (stereo not drawn) — higher, > 100 µM
- O=[N+]([O-])c1cccc2nc3ccccc3c(NCCCCNc3c4ccccc4nc4cccc([N+](=O)[O-])c34)c12 — higher, > 100 µM
- C/C=C/C(C#N)(/C=C/c1ccccc1)OP1(=O)OC(c2ccccc2)C(C)N1C (stereo not drawn) — within 1.5-fold, 35.9 µM
- CN(C)CCCN1c2ccc([N+](=O)[O-])cc2CCc2cccc([N+](=O)[O-])c21 — within 1.5-fold, 33.5 µM
- C=C(C)[C@@H]1CCC2=C[C@@H](OC2=O)[C@@H](C(=C)C)C2=CC(C(=O)O)=C(C1)O2 — higher, > 100 µM
- S=C(N1CCN(c2ccc(Cl)c(Cl)c2)CC1)N1CCN(c2ccc(Cl)c(Cl)c2)CC1 — 1.5-fold higher, 41.7 µM
- Cc1ccc(S(=O)(=O)NC(=O)NC(CC(N)=O)C(=O)O)cc1 (stereo not drawn) — higher, > 100 µM
- COc1cc(-c2ccc(Br)[nH]2)[nH]c1C=NCC(C)C — 9-fold lower, 3.07 µM
- Cc1ccc(-c2n[nH]c(Cc3nc(-c4ccc(C)cc4)n[nH]3)n2)cc1 — higher, > 100 µM
- c1ccc(C(C2=Nc3cccc4cccc(c34)N2)c2ccccc2)cc1 — 1.8-fold higher, 50 µM
- CN(CC(=O)N1CC(CCl)c2ccc([N+](=O)[O-])cc21)CC(=O)N1CC(CCl)c2ccc([N+](=O)[O-])cc21 (stereo not drawn) — higher, > 100 µM
- COC(=O)NC(Nc1ccccn1)(C(F)(F)F)C(F)(F)F — higher, > 100 µM
- CC(=O)Nc1oc(C)c(C)c1S(=O)(=O)c1ccc(Cl)cc1 — 3.1-fold higher, 85.6 µM
- NC1CC(=O)c2cscc21 (stereo not drawn) — higher, > 100 µM
- CC1=CC(=O)[C@@H](O)[C@]2(C)[C@H]3[C@@]4(O)OC[C@]35[C@H]([C@@H](C)[C@H]4O)[C@@H](OC(=O)C(C)(C)CO)C(=O)O[C@@H]5C[C@@H]12 — 49-fold lower, 0.559 µM

Each compound was assayed on SNB-19 CNS (assay: NCI tumour cell line growth inhibition, 48 h).

Point of comparison: `Cc1nnc2n1N=C(c1ccccc1)/C(=C/c1ccc(-c3ccc(Cl)cc3)o1)S2`, TGI 35 µM. Against it:
- COc1ccc(/C=c2/sc3n(c2=O)C(c2ccccc2)C2(O)CCCCC2N=3)cc1 (stereo not drawn) — not separable, > 12.5 µM
- CCCN(CCC)CCc1ccc(OC2=CCN(C)CC2)cc1 — higher, > 100 µM
- O=C1OCN(c2ccccc2)C12CCN(Cc1ccccc1)CC2 — higher, > 100 µM
- Cc1ccc2c(c1)[nH]c(=S)n2C=C(C(N)=O)C(N)=O — higher, > 100 µM
- Cn1c(=O)c2c3ccccc3n(C)c2n(C)c1=O — higher, > 100 µM
- CN(C)CCNc1ccc([N+](=O)[O-])c2sc3ccccc3c(=O)c12 — within 1.5-fold, 43.2 µM
- COc1cc(NC(C)c2ccc3c(c2)OCCO3)cc(OC)c1OC (stereo not drawn) — higher, > 100 µM
- Cc1cccc2oc3c(CC(=O)O)cccc3c(=O)c12 — higher, > 100 µM
- S=c1nc2sc3c(c2c(Nc2ccc(Cl)cc2)[nH]1)CCCC3 — higher, > 100 µM
- CCCCS(=O)(=O)CCC(N)P(=O)(O)O (stereo not drawn) — higher, > 100 µM
- O=[N+]([O-])c1cccc2nc3ccccc3c(NCCCCNc3c4ccccc4nc4cccc([N+](=O)[O-])c34)c12 — 230-fold lower, 0.152 µM
- C/C=C/C(C#N)(/C=C/c1ccccc1)OP1(=O)OC(c2ccccc2)C(C)N1C (stereo not drawn) — within 1.5-fold, 42.1 µM
- CN(C)CCCN1c2ccc([N+](=O)[O-])cc2CCc2cccc([N+](=O)[O-])c21 — within 1.5-fold, 36.1 µM
- C=C(C)[C@@H]1CCC2=C[C@@H](OC2=O)[C@@H](C(=C)C)C2=CC(C(=O)O)=C(C1)O2 — higher, > 100 µM
- S=C(N1CCN(c2ccc(Cl)c(Cl)c2)CC1)N1CCN(c2ccc(Cl)c(Cl)c2)CC1 — within 1.5-fold, 26.7 µM
- Cc1ccc(S(=O)(=O)NC(=O)NC(CC(N)=O)C(=O)O)cc1 (stereo not drawn) — higher, > 100 µM
- CSCCCN(CCCSC)CCCSC — higher, > 100 µM
- Cc1ccc(-c2n[nH]c(Cc3nc(-c4ccc(C)cc4)n[nH]3)n2)cc1 — higher, > 100 µM
- c1ccc(C(C2=Nc3cccc4cccc(c34)N2)c2ccccc2)cc1 — higher, > 100 µM
- CN(CC(=O)N1CC(CCl)c2ccc([N+](=O)[O-])cc21)CC(=O)N1CC(CCl)c2ccc([N+](=O)[O-])cc21 (stereo not drawn) — higher, > 100 µM
- COC(=O)NC(Nc1ccccn1)(C(F)(F)F)C(F)(F)F — higher, > 100 µM
- CC(=O)Nc1oc(C)c(C)c1S(=O)(=O)c1ccc(Cl)cc1 — higher, > 100 µM
- COC1(c2ccc(Cl)cc2)SC=C(C)n2c1noc2=O (stereo not drawn) — higher, > 100 µM
- NC1CC(=O)c2cscc21 (stereo not drawn) — higher, > 100 µM
- CC1=CC(=O)[C@@H](O)[C@]2(C)[C@H]3[C@@]4(O)OC[C@]35[C@H]([C@@H](C)[C@H]4O)[C@@H](OC(=O)C(C)(C)CO)C(=O)O[C@@H]5C[C@@H]12 — 56-fold lower, 0.626 µM

Each compound was assayed on SNB-75 CNS (assay: NCI tumour cell line growth inhibition, 48 h).

Point of comparison: `CN(C)CCCN1c2ccc([N+](=O)[O-])cc2CCc2cccc([N+](=O)[O-])c21`, TGI 26.5 µM. Against it:
- COc1ccc(/C=c2/sc3n(c2=O)C(c2ccccc2)C2(O)CCCCC2N=3)cc1 (stereo not drawn) — not separable, > 12.5 µM
- O=C1OCN(c2ccccc2)C12CCN(Cc1ccccc1)CC2 — 2.3-fold higher, 59.9 µM
- Cc1ccc2c(c1)[nH]c(=S)n2C=C(C(N)=O)C(N)=O — higher, > 100 µM
- Cn1c(=O)c2c3ccccc3n(C)c2n(C)c1=O — higher, > 100 µM
- CN(C)CCNc1ccc([N+](=O)[O-])c2sc3ccccc3c(=O)c12 — within 1.5-fold, 35.6 µM
- CN1Cc2ccccc2S(=O)(=O)n2cccc2C1=O — higher, > 100 µM
- CCCCS(=O)(=O)CCC(N)P(=O)(O)O (stereo not drawn) — higher, > 100 µM
- O=[N+]([O-])c1cccc2nc3ccccc3c(NCCCCNc3c4ccccc4nc4cccc([N+](=O)[O-])c34)c12 — 14-fold lower, 1.83 µM
- C/C=C/C(C#N)(/C=C/c1ccccc1)OP1(=O)OC(c2ccccc2)C(C)N1C (stereo not drawn) — within 1.5-fold, 39.4 µM
